Article PMC12615753, “Glutathione as a taste modulator: molecular mechanisms of interaction with umami and sweet taste receptors” (Food Chemistry: Molecular Sciences, 2025)

Target: T1, hTAS1R1 A170W/rTAS1R3 (UniProt Q7RTX1+Q923K1, A170W)
T1 construct: The cDNA coding region of rTAS1R3 was synthesized with optimized-codon usage for human expression; expressed in transfected cells; host or cells: HEK293T/17
T1 sequence (Q7RTX1 21-841 A170W): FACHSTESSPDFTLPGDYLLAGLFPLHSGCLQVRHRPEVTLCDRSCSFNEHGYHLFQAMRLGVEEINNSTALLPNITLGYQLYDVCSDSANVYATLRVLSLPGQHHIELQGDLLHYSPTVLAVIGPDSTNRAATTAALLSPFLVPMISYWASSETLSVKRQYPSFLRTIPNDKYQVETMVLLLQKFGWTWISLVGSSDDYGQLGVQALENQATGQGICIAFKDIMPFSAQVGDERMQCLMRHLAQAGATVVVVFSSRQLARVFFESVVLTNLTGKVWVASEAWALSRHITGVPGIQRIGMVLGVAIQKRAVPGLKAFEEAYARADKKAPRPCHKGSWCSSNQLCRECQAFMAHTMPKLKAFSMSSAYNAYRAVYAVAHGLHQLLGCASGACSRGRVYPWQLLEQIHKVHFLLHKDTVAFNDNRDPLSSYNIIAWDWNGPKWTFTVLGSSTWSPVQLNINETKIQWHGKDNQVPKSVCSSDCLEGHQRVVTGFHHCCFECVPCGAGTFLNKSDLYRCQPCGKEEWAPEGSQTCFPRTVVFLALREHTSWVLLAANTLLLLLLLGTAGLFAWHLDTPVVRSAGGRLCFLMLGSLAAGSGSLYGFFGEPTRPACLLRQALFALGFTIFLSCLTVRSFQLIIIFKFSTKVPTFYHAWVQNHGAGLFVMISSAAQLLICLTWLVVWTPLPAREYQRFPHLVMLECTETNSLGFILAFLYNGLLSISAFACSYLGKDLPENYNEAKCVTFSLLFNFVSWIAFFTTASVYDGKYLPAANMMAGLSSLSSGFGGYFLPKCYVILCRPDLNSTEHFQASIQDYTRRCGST
T1 sequence (Q923K1 21-858): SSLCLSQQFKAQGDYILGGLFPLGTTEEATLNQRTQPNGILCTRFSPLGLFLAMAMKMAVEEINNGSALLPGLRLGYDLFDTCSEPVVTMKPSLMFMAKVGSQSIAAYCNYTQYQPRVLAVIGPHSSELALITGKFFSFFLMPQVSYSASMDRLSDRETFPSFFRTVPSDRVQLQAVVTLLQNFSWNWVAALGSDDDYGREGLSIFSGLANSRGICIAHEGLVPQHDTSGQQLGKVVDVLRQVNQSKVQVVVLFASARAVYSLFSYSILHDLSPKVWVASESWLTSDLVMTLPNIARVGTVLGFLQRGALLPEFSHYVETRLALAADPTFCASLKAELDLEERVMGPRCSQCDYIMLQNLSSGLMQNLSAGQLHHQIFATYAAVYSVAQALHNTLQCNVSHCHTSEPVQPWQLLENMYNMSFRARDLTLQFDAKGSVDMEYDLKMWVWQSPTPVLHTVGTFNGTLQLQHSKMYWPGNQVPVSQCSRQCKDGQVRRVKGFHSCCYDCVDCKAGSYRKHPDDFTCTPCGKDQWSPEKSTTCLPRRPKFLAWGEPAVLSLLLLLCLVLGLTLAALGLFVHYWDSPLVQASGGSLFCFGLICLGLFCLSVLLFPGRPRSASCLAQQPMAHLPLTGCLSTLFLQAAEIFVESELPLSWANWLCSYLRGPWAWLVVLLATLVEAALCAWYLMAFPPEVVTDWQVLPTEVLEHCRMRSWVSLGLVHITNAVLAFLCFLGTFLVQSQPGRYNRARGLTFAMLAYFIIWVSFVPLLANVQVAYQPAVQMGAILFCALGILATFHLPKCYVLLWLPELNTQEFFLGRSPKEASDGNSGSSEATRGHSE
Experiment: Calcium assay, hTAS1R1 mutant co-expressed with rTAS1R3
Format: cell-based, human, rat

| Compound | EC50 [mM] | Max ∆F/F0 (A170W, GSH) | R1 = mutant EC50/WT EC50 (A170W, GSH) | response to the agonist alone, vs WT (A170W) |
| --- | --- | --- | --- | --- |
| N[C@@H](CCC(=O)N[C@@H](CS)C(=O)NCC(=O)O)C(=O)O [GSH, γ-L-glutamyl-L-cysteinyl-glycine] | 5.29 ± 1.56 | 0.09 ± 0.01 | 2.1 | – |
| N[C@@H](CCC(=O)O)C(=O)O [L-Glu, L-glutamic acid, reference compound] | – | – | – | completely suppressed |
